Data from patent US20260144802A1, “POST-OPERATIVE DELIRIUM SUPPRESSANT” (priority 2022, published 2026).

Assays:
IL-1β mRNA = IL-1β mRNA expression in the hippocampus by RT-PCR after laparotomy; format: in vivo, rat; conditions: Example 4, 12 hours after surgery, vs laparotomy+solvent, FIG. 5
Description: (§1) Forty (40) SD male elderly rats of 19 to 24 months of age were randomly divided into a control group, an ALLO administration group, a laparotomy+solvent administration group, and a laparotomy+ALLO administration group by 10 rats.
Rats in the laparotomy group were subjected to laparotomy in the same manner as in Example 1. To rats in the laparotomy+ALLO administration group, 10 mg/kg of brexanolone was intraperitoneally administered immediately after surgery. To rats in the laparotomy+solvent administration group, only the same amount of solvent was administered instead of brexanolone.
Rats in the control group and the ALLO administration group were not subjected to laparotomy, and only subjected to anesthesia with isoflurane and local infiltration anesthesia with ropivacaine in the same manner. […]
Twelve (12) hours after surgery, the hippocampus, which is considered to be strongly related to an onset of post-operative delirium, was extracted, and mRNA expression levels of IL-1β and TNFα, which are inflammatory cytokines suspected to be related to an onset mechanism of post-operative delirium, were measured by an RT-PCR method. After the trace memory conditioning test of Example 1, the hippocampus was extracted at 48 hours after the laparotomy, and expression levels of IL-1 and TNFα in the hippocampus sample were measured by an ELISA method. […]

[1] = tested on: post-operative delirium model rats; assay: Trace memory conditioning test (trace memory test and context memory test) in aged post-operative delirium model rats; format: in vivo, rat; conditions: SD male elderly rats with laparotomy, 10 mg/kg intraperitoneally immediately after surgery, vs laparotomy+solvent
From the text: as §1
Rats in the laparotomy+solvent administration group and the laparotomy+ALLO administration group were anesthetized with 1.5 to 2.0% isoflurane, and then underwent a median incision of 2 cm in the abdomen. The small intestine was pulled out by about 5 cm from the laparotomy site and extended with a finger for 3 minutes. Next, the abdomen was closed, and local infiltration anesthesia was applied to the wound with 0.2% ropivacaine for post-operative pain. To rats in the laparotomy+ALLO administration group, 10 mg/kg of brexanolone was intraperitoneally administered immediately after surgery. To rats in the laparotomy+solvent administration group, only the same amount of solvent was administered instead of brexanolone. […]
Twelve (12) hours after acquisition of memory of stimulation, a “trace memory test” was performed. Specifically, “only sound stimulation” was performed under different gauges, and freezing behavior at that time was measured.
Finally, 4 hours after the trace memory test, rats were placed under a cage similar to the initial memory acquisition cage and freezing behavior of the rats without stimulation was measured as a “context memory test”.

| Structure (SMILES) | relative expression level of IL-1β mRNA in the hippocampus (IL-1β mRNA; 10 mg/kg intraperitoneally 30 minutes before anesthesia) | attention (proportion of freezing behavior time, trace memory test) ([1]; FIG. 1(1)) | cognitive abilities (freezing behavior, context memory test) ([1]; FIG. 1(2)) | relative expression level of IL-1β mRNA in the hippocampus (IL-1β mRNA; 3 mg/kg orally 30 minutes before anesthesia) |
| --- | --- | --- | --- | --- |
| CC(=O)[C@H]1CC[C@H]2[C@@H]3CC[C@H]4C[C@H](O)CC[C@]4(C)[C@H]3CC[C@]12C [brexanolone] | significantly reduce | significantly higher | significantly higher | – |
| C[C@@]1(O)CC[C@H]2[C@H](CC[C@@H]3[C@@H]2CC[C@]2(C)[C@@H](C(=O)Cn4cc(C#N)cn4)CC[C@@H]32)C1 [zuranolone] | – | – | – | significantly reduce |
